Experimental data: paper PMC10574761, “Novel 1,2,3-Triazole-Containing Quinoline–Benzimidazole Hybrids: Synthesis, Antiproliferative Activity, In Silico ADME Predictions, and Docking” (Molecules, 2023)

What was measured:
[1] = tested on: CaCo-2 (human colorectal adenocarcinoma); assay: MTT proliferation assay, CaCo-2; type: cell-based; conditions: 72 h treatment
Method: (§1) The effect of the new synthesized compounds was tested on five human tumor cell lines, HeLa (human cervical adenocarcinoma; from ATCC), CaCo-2 (human colorectal adenocarcinoma), HL-60 (acute promyelocytic leukemia), HuT78 (T-cell lymphoma) and THP-1 (acute monocytic leukemia), and on one non-tumor cell line, MRC-5 (human fetal lung fibroblasts). The MRC-5 cells were used between 24 and 26 passages. The cells were cultured in two different types of media: DMEM (Gibco, EU) and RPMI 1640 (Gibco, EU). Both media were supplemented with 2 mM glutamine, fetal bovine serum (10%; heat inactivated) and antibiotics (100 U penicillin and 0.1 mg streptomycin). RPMI 1640 was additionally supplemented with 10 mM HEPES and 1 mM sodium pyruvate. The cells growing in a monolayer were cultured in DMEM, while the cells growing in suspension were cultured in RPMI 1640. The cells were grown in humidified atmosphere under the conditions of 37 °C/5% CO2 gas in the CO2 incubator (IGO 150 CELLlife^TM, JOUAN, Thermo Fisher Scientific, Waltham, MA, USA).
(§2) Growth-inhibitory activity was assessed using a slightly modified procedure based on the National Cancer Institute’s protocol. Briefly, the cells were seeded in 96-well microtiter plates and incubated for 24 h. They were then treated with 10^−7 to 10^−4 M concentrations of the tested compounds for an additional 72 h. After the treatment period, the effects of the tested compounds on the growth rate of the cells were examined using the MTT assay. Absorbance was measured at 595 nm using a microplate reader. […] The selectivity index was calculated according to the following formula: SI=IC50 value of normal cell line/IC50 value of cancer cell line
(§3) The effect of each concentration was analyzed by plotting the logarithm of the concentration of the evaluated compound against the corresponding percentage inhibition value using least squares.

[2] = tested on: THP-1 (acute monocytic leukemia); assay: MTT proliferation assay, THP-1; type: cell-based, human; conditions: for IC50: Homo sapiens, THP-1, 72 h treatment, MTT
Method: as §1, §2, §3

[3] = tested on: HuT78 cells; assay: Cell cycle analysis by flow cytometry (PI staining); type: cell-based, human; conditions: 24 h, p < 0.05
Method: The cells were exposed to the compounds for 24 h, collected, washed with PBS, fixed with 70% ethanol and stored at −20 °C until analysis. On the day of analysis, the cell pellets were washed twice with PBS, resuspended in 1 mg/mL PI and 0.2 mg/mL RNase A and left in a dark/cold atmosphere for 30 min. The stained cells were analyzed using FACSCalibur (Becton Dickinson, Franklin Lakes, NJ, USA) flow cytometer. Tests were performed in duplicate and repeated twice. FlowJo software, version 10.2., was adapted for the analysis of DNA histograms.
[…] 13.5 (TIBCO Software Inc., Tulsa, USA) was used for the statistical analysis of the results. Student’s t test was used for data analysis. Differences were considered statistically significant at p < 0.05.

[4] = tested on: Hut78 (T-cell lymphoma); assay: MTT proliferation assay, HuT78; type: cell-based, human; conditions: for IC50: Homo sapiens, HuT78, 72 h treatment, MTT
Method: as §1, §2, §3

[5] = tested on: MRC-5 (human fetal lung fibroblasts, non-tumor); assay: MTT proliferation assay, MRC-5; type: cell-based; conditions: MRC5, 72 h treatment
Method: as §1, §2, §3

[6] = tested on: HL-60 (acute promyelocytic leukemia); assay: MTT proliferation assay, HL-60; type: cell-based; conditions: Homo sapiens, 72 h treatment
Method: as §1, §2, §3

[7] = tested on: HeLa (human cervical adenocarcinoma); assay: MTT proliferation assay, HeLa; type: cell-based; conditions: 72 h treatment
Method: as §1, §2, §3

[8] = SI = IC50 of normal cell line (MRC-5) / IC50 of cancer cell line

| melting point [°C] | IC50 [1] [µM] | IC50 [2] [µM] | IC50 [4] [µM] | IC50 [6] [µM] | IC50 [7] [µM] | SMILES | selectivity index (SI) for THP-1 cells [2, 8] | enrichment of the S fraction compared to control cells ([3]; HuT-78, 0.5 µM) [%] | selectivity index (SI) for HuT78 cells [4, 8] | IC50 [5] [µM] | increase in the aggregation of cells in the subG0/G1 phase ([3]; HuT-78, 5 µM) | increase of the proportion of cells in subG0/G1 phase compared to untreated cells ([3]; HuT-78, 5 µM) [%] |
| --- | --- | --- | --- | --- | --- | --- | --- | --- | --- | --- | --- | --- |
| 215 to 217 | > 100 | > 100 | > 100 | > 100 | > 100 | Cl.Cl.Cl.N=C(N)c1ccc2[nH]c(-c3ccc(OCc4cn(CCNc5ccnc6cc(Cl)ccc56)nn4)c(Br)c3)nc2c1 [Compound 15d, 2-{3-bromo-4-[(1-{2-[(7-chloroquinolin-4-yl)amino]ethyl}-1H-1,2,3-triazol-4-yl)methoxy]phenyl}-1H-benzo[d]imidazol-5-carboximidamide trihydrochloride] |  |  |  | > 100 |  |  |
| 169 to 171 | > 100 | > 100 | 7.83 | > 100 | > 100 | CCCNC(=N)c1ccc2[nH]c(-c3ccc(OCc4cn(CCNc5ccnc6cc(Cl)ccc56)nn4)c(Br)c3)nc2c1.Cl.Cl.Cl [Compound 15e, 2-{3-bromo-4-[(1-{2-[(7-chloroquinolin-4-yl)amino]ethyl}-1H-1,2,3-triazol-4-yl)methoxy]phenyl}-N-propyl-1H-benzo[d]imidazol-5-carboximidamide trihydrochloride] |  |  |  | > 100 |  | 36 |

The remaining lines, values behind:

| SMILES | melting point [°C] | IC50 [1] [µM] | IC50 [2] [µM] | IC50 [4] [µM] | IC50 [6] [µM] | IC50 [7] [µM] | selectivity index (SI) for THP-1 cells [2, 8] | enrichment of the S fraction compared to control cells ([3]; HuT-78, 0.5 µM) [%] | selectivity index (SI) for HuT78 cells [4, 8] | IC50 [5] [µM] | increase in the aggregation of cells in the subG0/G1 phase ([3]; HuT-78, 5 µM) | increase of the proportion of cells in subG0/G1 phase compared to untreated cells ([3]; HuT-78, 5 µM) [%] |
| --- | --- | --- | --- | --- | --- | --- | --- | --- | --- | --- | --- | --- |
| COc1ccc2[nH]c(-c3ccc(OCc4cn(-c5ccnc6cc(Cl)ccc56)nn4)cc3)nc2c1 [Compound 9c, 7-chloro-4-(4-{[4-(5-methoxy-1H--benzo[d]imidazol-2-yl)phenoxy]methyl}-1H-1,2,3-triazol-1-yl)quinoline] | 85 to 86 | 8.3 | 0.18 | 0.2 | 1.02 | 7.53 | 15 | 31 | 13.55 | 2.71 |  |  |
| CCCNC(=N)c1ccc2[nH]c(-c3ccc(OCc4cn(-c5ccnc6cc(Cl)ccc56)nn4)c(Br)c3)nc2c1.Cl.Cl.Cl [Compound 10e, 2-(3-bromo-4-{[1-(7-chloroquinolin-4-yl)-1H-1,2,3-triazol-4-yl]methoxy}phenyl)-N-propyl-1H-benzo[d]imidazol-5-carboximidamide trihydrochloride] |  | > 100 | > 100 | 9.68 | 93.2 | > 100 |  |  |  | > 100 | more than threefold |  |
| CCCNC(=N)c1ccc2[nH]c(-c3ccc(OCc4cn(CCNc5ccnc6cc(Cl)ccc56)nn4)cc3)nc2c1.Cl.Cl.Cl [Compound 14e, 2-{4-[(1-{2-[(7-chloroquinolin-4-yl)amino]ethyl}-1H-1,2,3-triazol-4-yl)methoxy]phenyl}-N-propyl-1H-benzo[d]imidazol-5-carboximidamide trihydrochloride] | 209 to 211 | > 100 | > 100 | 10.9 | > 100 | > 100 |  |  |  | > 100 |  | 68 |
| COc1ccc2[nH]c(-c3ccc(OCc4cn(CCNc5ccnc6cc(Cl)ccc56)nn4)c(Br)c3)nc2c1 [Compound 15c, N-[2-(4-{[2-bromo-4-(5-methoxy-1H-benzo[d]imidazol-2-yl)phenoxy]methyl}-1H-1,2,3-triazol-1-yl)ethyl]-7-chloroquinolin-4-amine] | 92 to 94 | > 100 | 1.65 | 3.98 | 2.62 | > 100 |  |  |  | > 100 |  |  |
